Measured values as given in PubChem BioAssay AID256 (DTP/NCI, 2004).
“And” between values parts separate entries of the source, which are not always exact repeats. Equal values may be shown once. Inconclusive results and toxic doses are left out. The calls were made as follows: active = survival T/C of 150% or more; inactive = T/C below 125% in these data.

System: CD2F1 mice, L1210 leukemia ip, survival T/C
Test: NCI In Vivo Anticancer Drug Screen. Data for tumor model L1210 Leukemia (intraperitoneal) in CD2F1 (CDF1) mice
Conditions: higher = longer survival
How it was run: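 Activity against a transplanted murine tumor was judged by comparing the compound group with a vehicle group. The outcome in the treated animals was divided by that in the controls.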

[1] = endpoint: mean survival time, dose: 100.0 mg/kg/injection, schedule: Q01DX009 (ip), vehicle: saline with Tween-80
[2] = endpoint: mean survival time, dose: 100.0 mg/kg/injection, schedule: Q04DX003 (ip), vehicle: saline with Tween-80
[3] = endpoint: mean survival time, dose: 200.0 mg/kg/injection, schedule: Q01DX009 (ip), vehicle: saline with Tween-80
[4] = endpoint: mean survival time, dose: 200.0 mg/kg/injection, schedule: Q04DX003 (ip), vehicle: saline with Tween-80
[5] = endpoint: mean survival time, dose: 400.0 mg/kg/injection, schedule: Q01DX009 (ip), vehicle: saline with Tween-80
[6] = endpoint: mean survival time, dose: 400.0 mg/kg/injection, schedule: Q04DX003 (ip), vehicle: saline with Tween-80
[7] = endpoint: mean survival time, dose: 25.0 mg/kg/injection, schedule: Q01DX009 (ip), vehicle: saline with Tween-80
[8] = endpoint: mean survival time, dose: 50.0 mg/kg/injection, schedule: Q01DX009 (ip), vehicle: saline with Tween-80
[9] = endpoint: mean survival time, dose: 100.0 mg/kg/injection, schedule: Q04DX003 (ip), vehicle: saline
[10] = endpoint: mean survival time, dose: 200.0 mg/kg/injection, schedule: Q04DX003 (ip), vehicle: saline
[11] = endpoint: mean survival time, dose: 12.5 mg/kg/injection, schedule: Q04DX003 (ip), vehicle: saline with Tween-80
[12] = endpoint: mean survival time, dose: 25.0 mg/kg/injection, schedule: Q01DX009 (ip), vehicle: saline
[13] = endpoint: mean survival time, dose: 50.0 mg/kg/injection, schedule: Q01DX009 (ip), vehicle: saline
[14] = endpoint: mean survival time, dose: 12.5 mg/kg/injection, schedule: Q04DX003 (ip), vehicle: saline
[15] = endpoint: mean survival time, dose: 25.0 mg/kg/injection, schedule: Q04DX003 (ip), vehicle: saline
[16] = endpoint: mean survival time, dose: 50.0 mg/kg/injection, schedule: Q04DX003 (ip), vehicle: saline

Measured: T/C

NC(=O)C#CC(N)=O
inactive: endpoint: mean survival time, dose: 0.37 mg/kg/injection, schedule: Q01DX009 (ip), vehicle: saline 101 % of control | endpoint: mean survival time, dose: 0.75 mg/kg/injection, schedule: Q01DX009 (ip), vehicle: saline 103 % of control | endpoint: mean survival time, dose: 1.5 mg/kg/injection, schedule: Q01DX009 (ip), vehicle: saline 109 % of control | endpoint: mean survival time, dose: 3.0 mg/kg/injection, schedule: Q01DX009 (ip), vehicle: saline 122 % of control | [1] 95 % of control | [2] 108 % of control | [3] 98 % of control | [4] 92 % of control | [5] 108 % of control | [6] 89 % of control

O=c1ccccn1C1CC(O)C(CO)O1 (stereo not given)
inactive: endpoint: mean survival time, dose: 100.0 mg/kg/injection, schedule: Q01DX005 (ip), vehicle: saline 101 % of control | endpoint: mean survival time, dose: 200.0 mg/kg/injection, schedule: Q01DX005 (ip), vehicle: saline 103 % of control

F[B-](F)(F)F
inactive: endpoint: mean survival time, dose: 12.5 mg/kg/injection, schedule: Q01DX009 (ip), vehicle: gum acacia 94 % of control and 106 % of control | endpoint: mean survival time, dose: 25.0 mg/kg/injection, schedule: Q01DX009 (ip), vehicle: gum acacia 98 % of control | endpoint: mean survival time, dose: 50.0 mg/kg/injection, schedule: Q01DX009 (ip), vehicle: gum acacia 96 % of control and 106 % of control | endpoint: mean survival time, dose: 100.0 mg/kg/injection, schedule: Q01DX009 (ip), vehicle: gum acacia 95 % of control and 101 % of control | endpoint: mean survival time, dose: 200.0 mg/kg/injection, schedule: Q01DX009 (ip), vehicle: gum acacia 109 % of control | endpoint: mean survival time, dose: 400.0 mg/kg/injection, schedule: Q01DX009 (ip), vehicle: gum acacia 98 % of control

C=CCNC(=O)/C=C/C(=O)NCC=C
inactive: [7] 97 % of control | [8] 97 % of control | [1] 101 % of control | [2] 97 % of control

O=C(NC(=S)c1ccccc1)Nc1ccc(Cl)cc1
inactive: endpoint: mean survival time, dose: 100.0 mg/kg/injection, schedule: Q01DX001 (ip), vehicle: saline with Tween-80 90 % of control | endpoint: mean survival time, dose: 200.0 mg/kg/injection, schedule: Q01DX001 (ip), vehicle: saline with Tween-80 94 % of control | endpoint: mean survival time, dose: 400.0 mg/kg/injection, schedule: Q01DX001 (ip), vehicle: saline with Tween-80 94 % of control

CC(=O)Oc1ccc(N2C(=O)C=CC2=O)cc1 (tested in a mixture with another compound)
inactive: [1] 95 % of control | [2] 91 % of control | [3] 91 % of control | [4] 90 % of control | [5] 91 % of control | [6] 87 % of control

O=C(O)Cc1c[nH]c2ccc(O)cc12
inactive: [1] 98 % of control | [2] 105 % of control | [3] 96 % of control | [4] 100 % of control | [5] 95 % of control | [6] 100 % of control

NC(=O)c1ncnnc1N
inactive: endpoint: mean survival time, dose: 100.0 mg/kg/injection, schedule: Q01DX001 (ip), vehicle: carboxymethylcellulose (CMC) 93 % of control | endpoint: mean survival time, dose: 200.0 mg/kg/injection, schedule: Q01DX001 (ip), vehicle: carboxymethylcellulose (CMC) 102 % of control | endpoint: mean survival time, dose: 400.0 mg/kg/injection, schedule: Q01DX001 (ip), vehicle: carboxymethylcellulose (CMC) 102 % of control

COC(=O)c1ccoc1
inactive: endpoint: median survival time, dose: 12.5 mg/kg/injection, schedule: Q01DX009 (ip), vehicle: saline 98 % of control | endpoint: median survival time, dose: 25.0 mg/kg/injection, schedule: Q01DX009 (ip), vehicle: saline 100 % of control | endpoint: median survival time, dose: 50.0 mg/kg/injection, schedule: Q01DX009 (ip), vehicle: saline 100 % of control | endpoint: median survival time, dose: 100.0 mg/kg/injection, schedule: Q01DX009 (ip), vehicle: saline 104 % of control | endpoint: median survival time, dose: 200.0 mg/kg/injection, schedule: Q01DX009 (ip), vehicle: saline 105 % of control | endpoint: median survival time, dose: 400.0 mg/kg/injection, schedule: Q01DX009 (ip), vehicle: saline 114 % of control

FC(F)(F)COP1(OCC(F)(F)F)=NP(OCC(F)(F)F)(OCC(F)(F)F)=NP(c2ccccc2)(c2ccccc2)=N1
inactive: [9] 102 % of control | [10] 100 % of control | endpoint: mean survival time, dose: 400.0 mg/kg/injection, schedule: Q04DX003 (ip), vehicle: saline 100 % of control

CC1=CC2=C(C=O)C(=O)[C@](C)(O)[C@@H](O)C2=CO1
inactive: endpoint: mean survival time, dose: 12.5 mg/kg/injection, schedule: Q01DX009 (ip), vehicle: saline with Tween-80 114 % of control | [7] 111 % of control | [8] 122 % of control

O=c1[nH]cc[nH]1
inactive: endpoint: mean survival time, dose: 267.0 mg/kg/injection, schedule: Q01DX009 (ip), vehicle: saline 111 % of control

CCC[CH2][Sn]([CH2]CCC)([n]1cncn1)[n]1cncn1
inactive: [11] 105 % of control

CO/C=C1\Cc2cc(OC)c(OC)cc2C1=O
inactive: [2] 100 % of control | [4] 94 % of control | [6] 102 % of control

C#CC(C)O (stereo not given)
inactive: [12] 96 % of control | [13] 89 % of control

O=S(=O)(O)c1ccc(-c2ccc(S(=O)(=O)O)cc2)cc1
inactive: endpoint: mean survival time, dose: 6.3 mg/kg/injection, schedule: Q01DX009 (ip), vehicle: saline 104 % of control | endpoint: mean survival time, dose: 6.3 mg/kg/injection, schedule: Q04DX003 (ip), vehicle: saline 102 % of control | endpoint: mean survival time, dose: 12.5 mg/kg/injection, schedule: Q01DX001 (ip), vehicle: saline 101 % of control | endpoint: mean survival time, dose: 12.5 mg/kg/injection, schedule: Q01DX009 (ip), vehicle: saline 104 % of control | [14] 100 % of control | endpoint: mean survival time, dose: 25.0 mg/kg/injection, schedule: Q01DX001 (ip), vehicle: saline 103 % of control | [12] 101 % of control | [15] 100 % of control | endpoint: mean survival time, dose: 50.0 mg/kg/injection, schedule: Q01DX001 (ip), vehicle: saline 101 % of control | [13] 104 % of control | [16] 93 % of control | endpoint: mean survival time, dose: 100.0 mg/kg/injection, schedule: Q01DX001 (ip), vehicle: saline 100 % of control and 108 % of control | endpoint: mean survival time, dose: 100.0 mg/kg/injection, schedule: Q01DX009 (ip), vehicle: saline 106 % of control | [9] 103 % of control | endpoint: mean survival time, dose: 200.0 mg/kg/injection, schedule: Q01DX001 (ip), vehicle: saline 100 % of control and 105 % of control | endpoint: mean survival time, dose: 200.0 mg/kg/injection, schedule: Q01DX009 (ip), vehicle: saline 98 % of control | [10] 100 % of control | endpoint: mean survival time, dose: 400.0 mg/kg/injection, schedule: Q01DX001 (ip), vehicle: saline 104 % of control and 107 % of control

Brc1ccc(C[N+]23CCN(CC2)CC3)cc1
inactive: [14] 98 % of control and 111 % of control | [15] 93 % of control and 100 % of control | [16] 95 % of control and 103 % of control

NNC(=S)N/N=C/c1ccccn1
inactive: endpoint: mean survival time, dose: 1.56 mg/kg/injection, schedule: Q01DX009 (ip), vehicle: saline 93 % of control and 98 % of control | endpoint: mean survival time, dose: 3.12 mg/kg/injection, schedule: Q01DX009 (ip), vehicle: saline 98 % of control and 100 % of control | endpoint: mean survival time, dose: 6.25 mg/kg/injection, schedule: Q01DX009 (ip), vehicle: saline with Tween-80 105 % of control | endpoint: mean survival time, dose: 6.25 mg/kg/injection, schedule: Q01DX009 (ip), vehicle: saline 115 % of control | endpoint: mean survival time, dose: 6.25 mg/kg/injection, schedule: Q04DX003 (ip), vehicle: saline with Tween-80 118 % of control | endpoint: mean survival time, dose: 6.3 mg/kg/injection, schedule: Q01DX009 (oral), vehicle: saline 92 % of control | endpoint: mean survival time, dose: 12.5 mg/kg/injection, schedule: Q01DX009 (oral), vehicle: saline 98 % of control | [11] 98 % of control | endpoint: mean survival time, dose: 25.0 mg/kg/injection, schedule: Q04DX003 (ip), vehicle: saline with Tween-80 102 % of control

CC(C)(C)CC(C)(C)NCC(O)COc1ccc(C(C)(C)c2ccc(OCC(O)CNC(C)(C)CC(C)(C)C)cc2)cc1 (stereo not given)
inactive: endpoint: mean survival time, dose: 3.0 mg/kg/injection, schedule: Q01DX009 (ip), vehicle: saline with Tween-80 102 % of control | endpoint: mean survival time, dose: 3.12 mg/kg/injection, schedule: Q01DX009 (ip), vehicle: Klucel (hydroxypropylcellulose) (HPC) 93 % of control | endpoint: mean survival time, dose: 6.0 mg/kg/injection, schedule: Q01DX009 (ip), vehicle: saline with Tween-80 100 % of control | endpoint: mean survival time, dose: 6.25 mg/kg/injection, schedule: Q01DX009 (ip), vehicle: Klucel (hydroxypropylcellulose) (HPC) 94 % of control | endpoint: mean survival time, dose: 12.0 mg/kg/injection, schedule: Q01DX009 (ip), vehicle: saline with Tween-80 94 % of control | endpoint: mean survival time, dose: 12.5 mg/kg/injection, schedule: Q01DX009 (ip), vehicle: Klucel (hydroxypropylcellulose) (HPC) 100 % of control
